Results as given in patent US6566047B1, “Method for identifying neurite-growth promoting agents” (The Regents of the University of Colorado, priority 1998, dated 2003).
Entries after “also recorded” stand apart in the source; their conditions may differ.

What was measured:
[1] = test system: MAT-Lu cells; assay: Pseudopod morphometry (pseudopod length assay), MAT-Lu cells; type: cell-based, rat; conditions: for effect of agent alone on pseudopod length: typically 15 min exposure; for effect of inhibitor pretreatment on AA-induced pseudopod shortening: 15 min pretreatment, indomethacin 10 ηm, NDGA 25 μM, CDC 63 and 126 nM
Protocol: Pseudopod Morphometry. To study the effects of various agents on pseudopods on a short-term basis, we measured pseudopod lengths. Cells plated in 35-mm diameter dishes at low density (1×10^4 per dish) were incubated overnight, tie medium was changed, and the experiments were run four hours later. First, cultures were shifted to serum-free medium, which was replaced one hour later by serum-free medium with or without the various agents (thrombin, AA or HETEs). Care was taken to avoid heat and light inactivation of the eicosanoids. Culture dishes were placed on a Zeiss inverted microscope equipped with a heated stage and viewed with a 16×phase contrast objective lens. Randomly selected fields of the cultures, containing generally about 20 cells each, were recorded, digitized and stored in the computer at the onset of the experiment and at different times thereafter.
In some cases, individual cells were monitored over different periods of time immediately after introduction of the reagent, either by mixing it into the medium or by applying it locally to one end of the cell. Local application was done with a “puffer” system that expels microliter amounts of the desired solution from a micromanipulator-controlled micropipette tip. Cell morphology was recorded, and the captured images were analyzed with a Power Macintosh computer using NIH Image. Cell process length was measured from the center of the nucleus to the end of the process. Characterization of the frequencies of pseudopod lengths, at a fixed time for each of a sequence of concentrations of reagent, utilized a gamma regression model with an inverse quadratic linear predictor (McCullagh and Nelder, Generalized Linear Models 2d ed., pp. 291-292 (Chapman & Hall, 1989), separately fit to each concentration data set. Although no formal goodness-of-fit tests were carried out, in virtually every case there was good visual representation of the pattern of response (see FIG. 14). Most data, however, are shown as whisker-box plots, where the center point represents the 50%, the ends of the box the […] and 75%, and the “whiskers” the 5% and 95% quantiles (e.g., FIG. 11). Statistical comparisons of pseudopod lengths for different treatments were done by standard non-parametric techniques (Wilcoxon Rank Sum or Kruskal-Wallis Tests), as judged appropriate. Polynomial curve fittings were done by standard least-squares techniques. Statistical analyses and graphing were done with the use of SAS procedures: Reg, Phreg, Nparlway and Plot (SAS institute Inc., Cary, N.C.).

[2] = test system: protein kinase C (PKC); assay: MARCKS phosphorylation by PKC in isolated GCPs; type: biochemical, rat; conditions: isolated growth cones
Excerpt: FIG. 7A. Thrombin stimulates MARCKS phosphorylation in a 12-LOX-dependent manner. FIG. 7B. 12(S)-HETE stimulates MARCKS phosphorylation by PKC in isolated GCPs. […] Polypeptides were resolved by SDS-PAGE. MARCKS phosphorylation was quantified by phosphorimaging.

[3] = test system: GCPs plated on laminin; assay: GCP release (detachment) assay on laminin; set-up: species or system rat; conditions: 20 min at 37° C., cytochalasin D 1 μM
Protocol: GCP Release Assay. Petri dishes (35 mm diameter) were coated with 10 μg mouse laminin in PBS by incubation at room temperature for 60 min with shaking. Dishes were subsequently rinsed three times with PBS to remove unbound laminin and then blocked with 5% non-fat dry milk (Carnation) in PBS for 30 min. After three PBS rinses to remove blocking agent, the dishes were ready for the addition of GCPs. […] After incubation for five min at 37° C. this buffered GCP preparation was added to the laminincoated petri dishes. Contact with the substratum was facilitated by centrifuging the dishes for 15 min at 5000 g (Beckman JS5.2 rotor) at room temperature, followed by incubation at 37° C. to allow adhesion site formation. After 10 min, unattached GCPs were removed by rinsing the dishes twice with 1× modified Krebs buffer. Plated GCPs were then challenged with repellent factor (TRAP or thrombin) for 20 min at 37° C. The supernatant containing released GCPs was collected and centrifuged for protein determination of the pellet. GCPs that remained attached after repellent treatment were removed with 5% sodium dodecyl sulfate (SDS) for protein assay. Protein was measured according to Lowry et al. (1951) as modified by Peterson (1983). Results of these experiments were expressed as the percentage of released versus total GCP protein in the assay.

[4] = test system: growth cones in cultures of rat cerebral cortex; assay: Growth cone collapse assay in cortical neuron culture; type: cell-based; conditions: for effect of inhibitor pretreatment on thrombin- or TRAP-induced growth cone collapse: CDC 10 μM, indomethacin 25 μM, pretreatment 30-45 min
Protocol: Neuron Culture. Cerebral cortices were dissected from embryonic day 18 Sprague-Dawley rats, cut into explants of less than 1 mm^3 and cultured on either poly-D-lysine-coated coverglass (Assistent) or poly-D-lvsine-coated tissue culture plastic. After 24 hours in B27 neurobasal medium (NB) supplemented with 10% fetal bovine serum, cultures were switched to serum-free B27/NB. The cultures were incubated at 37° C. in 5% CO2 in air. Sprouting neurons were observed readily on day 1. On day 2 or 3, long neurites were present, and the cultures were used for collapse experiments.
Actin Staining. After experimentation, cultures were fixed by slow infusion of fixative (4% paraformaldehyde in 0.1 M phosphate buffer, pH 7.4) into the culture dishes over 10 min (Pfenninger and Maylié-Pfenninger, J. Cell Biol. 89:53-546 (1981)). Thereafter, the fixative was removed by rinsing three times with phosphate-buffered saline (PBS) containing 1 mM glycine. Cultures were then blocked with PBS/1% bovine serum albumin (BSA) and permeabilized by incubation in 0.02% Triton X-100 for 5 min. After three washes in PBS/BSA, cultures were incubated with Texas-Red-conjugated phalloidin for 30 min. Unbound phalloidin was washed away by two PBS rinses, after which the coverglasses were mounted in Slow-Fade Light on microscope slides. Images were recorded on 35 mm film using a Zeiss Axiophot fluorescence microscope equipped with epiillumination.
Growth Cone Collapse Assay. Prior to repellent factor treatment, some of the day 2-3 explant cultures were pre-incubated (at 37° C.) with inhibitor or vehicle control (dimethylsulfoxide or ethanol) for 30-60 min. Cultures were then challenged with a repellent factor or vehicle control for 1-30 min. In some experiments, live cultures were photographed with a Zeiss IM 35 inverted photo microscope equipped with a stage heater, while in others cultures were fixed (as above) after 7 minutes of repellent factor treatment. Growth cone collapse was assessed quantitatively in aldehyde-fixed cultures by grading the degree of collapse in a large number of randomly selected growth cones.

[5] = test system: 12-Lox; assay: Eicosanoid (HETE) generation in GCPs; type: biochemical, rat
Protocol: Eicosanoid Assays. Eicosanoid production in GCPs was measured by metabolic labelling from ^14C-AA or ^14C-AA-PC or by mass spectrometric detection. […] To measure Lox activity directly, without PLA2 involvement, ^3H-AA was the substrate of choice. Reactions were stopped by the addition of chloroform/methanol as for the phospholipase assays. Reaction products were extracted as described by Birkle et al., Neuromethods, vol. 7, pp.227-244 (Humana Press, N.J. 1988), spotted on pre-activated si gel 60 TLC plates, and the plates developed in the upper phase of ethyl acetate/isooctane/acetic acid/water (100:60:20:100). AA and HETEs were identified by co-migration with standards. Appropriate bands were counted by liquid scintillation spectrometry.
For mass-spectrometric (MS) identification of HETEs, two different strategies were pursued:
(1) the appropriate bands from non-labelled samples (PC substrate) were scraped from the TLC plate into ether/methanol (9:1) and stored under N2 at −20° C. Authentic 12(S)-HETE, run alongside in the same manner, was used as a standard. Just prior to analysis, samples were passed over an SPE filter to eliminate silica particles, dried under argon, resuspended in 500 μl ethanol, and injected (at 3 μl/min) into a Finnigan LCQ quadrupole ion trap mass spectrometer (Finnigan MAT, San Jose, Calif.) equipped with an electrospray ionization source. All spectra were acquired at a capillary temperature of 80° C., and ion guide voltages were tuned to maximize the abundance of the deprotonated ion species [M-H]^− in negative mode. In order to generate a spectrum, typically 100 single scans were averaged.
(2) For the other strategy (liquid chromatography/tandem MS, LC/MS^2), the reaction substrate consisted of 3.5 μM AA, with the addition of 3.5 μM deuterated AA (AA-D8) plus 1 μCi ^3H-AA to track reaction products by mass and radioactivity, respectively. Reactions were stopped with ice-cold ethanol, the mixtures kept overnight at −20° C. under N2, and the proteins spun out The supernatants were diluted with H2O and loaded onto 1-ml C18 Sep-Pak columns (Varian). After washing with H2O, eicosanoid was eluted with 2 ml methanol. These samples were resolved by reverse-phase HPLC, and the eluted fractions analyzed by tandem MS on-line (MacMillan and Murphy, 1995). Collision-induced decomposition of HETE isomers produced characteristic fragments that were identified at the second MS stage.

[6] = test system: growth cone PLA2; assay: PLA2 assay in growth cone particles (GCPs); type: biochemical, rat; conditions: GCPs
Protocol: Growth Cone Particle (GCP) Isolation. GCPs were prepared as described by Pfenninger et al. (1983) and modified by Lohse et al., Dev. Brain Res., 96:38-96 (1996). Briefly, 18-day fetal brains were homogenized in approximately 8 volumes of 0.32 M sucrose containing 1 mM MgCl2, 2 mM TES buffer, pH 7.3, and 3 μM aprotinin. A low-speed supernatant (1,660 g×15 min) was loaded onto a discontinuous sucrose density gradient With steps of 0.83 M and 2.66 M sucrose containing MgCl2 and TES. The gradients were spun to equilibrium at 242,000 g for 40 min in a vertical rotor (Vti50, Beckman). The GCP fraction at the 0.32/0.83 M sucrose interface was collected and used for the experiments described below.
All assays were run in triplicate.

CCCCC/C=C\C/C=C\C/C=C\C=C\[C@@H](O)CCCC(=O)O [5(S)-HETE]
effect of agent alone on pseudopod length [1]: essentially inactive; also recorded: had no effect on pseudopod length

CCCCC/C=C\C[C@@H](O)/C=C/C=C\C/C=C\CCCC(=O)O [12(R)-HETE]
effect of agent alone on pseudopod length [1]: essentially inactive; also recorded: small reduction in pseudopod length
stimulation of MARCKS and GAP43 phosphorylation [2]: not

CCCCC[C@H](O)/C=C/C=C\C/C=C\C/C=C\CCCC(=O)O [15(S)-HETE, 15(S)-hydroxyeicosatetraenoic acid]
effect of agent alone on pseudopod length [1]: about as active as 12(S)-HETE; also recorded: reduced pseudopod lengths of MAT-Lu cells in a biphasic manner

CC(=O)C(C)=NO [BDM, 2,3-butanedione monoxime]
effect on GCP detachment from laminin [3]: caused considerable release of GCPs by themselves

CC(Cc1ccc(O)c(O)c1)C(C)Cc1ccc(O)c(O)c1 (stereo not drawn) [NDGA, nordihydroguaiaretic acid]
effect of inhibitor pretreatment on AA-induced pseudopod shortening [1]: blocked the AA effect completely; also recorded: inhibited the pseudopod shortening
effect of agent alone on pseudopod length [1]: had no effect on pseudopod lengths
effect of inhibitor pretreatment on thrombin- or TRAP-induced growth cone collapse [4]: protects growth cones from thrombin- or TRAP-induced collapse
effect on conversion of 14C-AA into 12(S)-HETE ([5]; 60 min, 37° C.): blocked

C=C1[C@@H](C)[C@H]2[C@H](Cc3ccccc3)NC(=O)[C@]23[C@H](OC(C)=O)/C=C/[C@@](C)(O)C(=O)[C@@H](C)C/C=C/[C@H]3[C@@H]1O [cytochalasin D]
effect on GCP detachment from laminin [3]: caused considerable release of GCPs by themselves

COc1ccc2c(c1)c(CC(=O)O)c(C)n2C(=O)c1ccc(Cl)cc1 [indomethacin]
effect of inhibitor pretreatment on AA-induced pseudopod shortening [1]: did not influence the AA effect; also recorded: had no effect at all
effect of inhibitor pretreatment on thrombin- or TRAP-induced growth cone collapse [4]: has no effect on control or thrombin treatment of growth cones
effect of inhibitor on thrombin-stimulated HETE production from AA ([5]; 3H-AA substrate): not

NGF: growth factor whose receptors are present on GCPs
activation of growth cone cPLA2/PLA2 [6]: only weakly or not at all

SFLLRN [TRAP]
growth cone collapse, agent alone ([4]; thrombin 100 nM, TRAP (100 mM), 12(S)-HETE 10^−7 M): qualitatively the same effect as thrombin, but the change is not as pronounced
activation of growth cone cPLA2/PLA2 [6]: clearly stimulated PLA2, but to a considerably lesser degree
activation of growth cone cPLA2/PLA2 ([6]; listed as TRAPs): much less effectively
effect on GCP detachment from laminin [3]: mimics the effect
effect on GCP detachment from laminin ([3]; listed as TRAPs): much less effectively

insulin: insulin from Collaborative Biomedical Products
activation of growth cone cPLA2/PLA2 [6]: failed to stimulate PLA2 significantly
net activity (pmol/min/mg protein) ([6]; Table 3c, substrate PI, BDNF 100, IGF-1 0.75, insulin 1, thrombin 200 nM, control 159 ± 6.2): 158 ± 8.4 pmol/min/mg protein
